Measurements taken from patent publication US20180256673A1, “METHODS FOR TREATING FUNGAL INFECTIONS” (priority 2015, published 2018).
In brackets after ≈: the same amount, converted by molar mass. Several values for one entry are separate records, joined by “and”; a condition that tells them apart may be missing. Equal entries are not always repeated. Where two headings read alike, the source gives them in different places. Starred links: 1 amine or outer side, 2 acyl side, 3 side chain; linkers in the order of their positions; H or OH if unused. Positions of bridges follow the written chain, without caps; N, C: chain ends. Non-standard residues stand in square brackets, D forms with d. Residues, ends and D or L forms follow the SMILES beside them. *: point of attachment. pTerphenylCO(4''-OnC5H11) = CCCCCOc1ccc(-c2ccc(-c3ccc(C(=O)*)cc3)cc2)cc1; Orn(4R-OH,5R-OH) = O=C([C@H](C[C@@H](O)[C@@H](O)N[*:3])N[*:1])[*:2]; hTyr(3S-OH,4S-OH) = N[C@H](C(=O)O)[C@H](O)[C@@H](O)c1ccc(O)cc1; Pro(3S-OH,4S-Me) = C[C@H]1CN[C@H](C(=O)O)[C@H]1O; Hyp = O=C(O)[C@@H]1C[C@@H](O)CN1

Assays:
C. parapsilosis CP02 [1] = test: Broth microdilution MIC (CLSI), Examples 3 and 4; settings: Lodderomyces parapsilosis, CP02, 24 h, read-out: Broth MIC
Method: Antifungal susceptibility testing. Candida strains were cultured aerobically at 35° C. on SDA plates or in RPMI 1640 broth (pH 7.0). […] MIC assays were performed in triplicate.

Candida tropicalis = test: Broth microdilution of invasive fungal isolates (CLSI M27-A3/M38-A2); type: cell-based
[2] = tested on: Cryptococcus neoformans var. grubii; test: as above; type: cell-based
[3] = tested on: C. tropicalis vaginal isolates; test: Susceptibility testing of VVC clinical isolates at pH 7 and 4 (CLSI M27-A3); type: cell-based; settings: Candida tropicalis
[4] = tested on: C. parapsilosis vaginal isolates; test: as above; type: cell-based, Candida parapsilosis
Candida krusei = test: Broth microdilution of invasive fungal isolates (CLSI M27-A3/M38-A2); type: cell-based
[5] = tested on: C. glabrata ATCC 90030, ATCC 2001; type: cell-based, Candida glabrata; settings: for Freq. (replicate mutation frequency): replicate plates 1-3; for Plate concentration: SDA, minimum concentration to cleanly inhibit growth
Method: Spontaneous mutant selection. […] Three individual colonies from each strain were used to start cultures in RPMI. […] One milliliter aliquots were spread onto SDA plates containing drug with sterile glass beads. Starting viable count was enumerated by triplicate plating of serial dilutions of the starting inoculum. […] Glycerol stocks of putative mutant colonies were stored at −80° C. […] Spontaneous mutation frequencies were calculated by dividing the number of resistant colonies on a given plate by the starting inoculum plated. A subset of mutants (weighted heavily towards those selected with CMP1) were then evaluated by MIC and sequencing of FKS gene hot spot regions.

Candida parapsilosis = test: Broth microdilution of invasive fungal isolates (CLSI M27-A3/M38-A2); type: cell-based
C. albicans NRRL Y-477 [6] = test: microbe, parasite or virus in culture; type: cell-based, Candida albicans; settings: for MIC: Candida albicans
[7] = tested on: C. glabrata ATCC 90030, ATCC 2001; test: microbe, parasite or virus in culture; type: cell-based, Candida glabrata; settings: for MIC fold-shift: WT to P20; for MIC: Nakaseomyces glabratus
C. parapsilosis CP02 [8] = test: microbe, parasite or virus in culture; type: cell-based, Candida parapsilosis; settings: for MIC: Lodderomyces parapsilosis
C. albicans NRRL Y-477 [9] = test: Broth microdilution MIC (CLSI), Examples 3 and 4; settings: Candida albicans
Method: Antifungal susceptibility testing. […] MIC assays were performed in triplicate.

[10] = tested on: C. krusei ATCC 6258, ATCC 14243; test: Time-kill assay in vagina-simulative medium pH 4.0 (Table 20); type: cell-based, Candida krusei
[11] = tested on: azole-resistant Candida albicans (R357); test: Disseminated infection model in neutropenic ICR mice, kidney fungal counts (Example 10, Tables 22-23); type: in vivo; settings: for reduction in colony counts compared to the vehicle control group: kidney, 20 mg/kg PO once
[12] = tested on: azole-resistant C. albicans (R357); test: Immunosuppressed rat model of vulvovaginal candidiasis, vaginal CFU; type: in vivo, Candida albicans; settings: oral 20 mg/kg once daily for three days; days 5 and 12

CCCCCOc1ccc(-c2ccc(-c3ccc(C(=O)N[C@H]4C[C@@H](O)[C@@H](O)NC(=O)[C@@H]5[C@@H](O)[C@@H](C)CN5C(=O)[C@H]([C@@H](C)O)NC(=O)[C@H]([C@H](O)[C@@H](O)c5ccc(O)cc5)NC(=O)[C@@H]5C[C@@H](O)CN5C(=O)[C@H]([C@@H](C)O)NC4=O)cc3)cc2)cc1 [ANID, anidulafungin] ({pTerphenylCO(4''-OnC5H11)}-[Orn(4R-OH,5R-OH)]T[Hyp][hTyr(3S-OH,4S-OH)]T[Pro(3S-OH,4S-Me)]; lactam 1-C)
MIC (C. parapsilosis CP02 [1]): 4 µg/mL (≈ 3.51 µM) | Cumulative % of isolates inhibited at MIC 0.015 μg/mL (Candida tropicalis; 51 isolates): (62.7) % | Cumulative % of isolates inhibited at MIC 0.03 μg/mL (Candida tropicalis; 51 isolates): (98.0) % | Cumulative % of isolates inhibited at MIC 0.06 μg/mL (Candida tropicalis; 51 isolates): (100.0) % | Cumulative % of isolates inhibited at MIC ≤0.008 μg/mL (Candida tropicalis; 51 isolates): (9.8) % | Number of isolates inhibited at MIC 0.015 μg/mL (Candida tropicalis; 51 isolates): 27 | Number of isolates inhibited at MIC 0.03 μg/mL (Candida tropicalis; 51 isolates): 18 | Number of isolates inhibited at MIC 0.06 μg/mL (Candida tropicalis; 51 isolates): 1 | Number of isolates inhibited at MIC ≤0.008 μg/mL (Candida tropicalis; 51 isolates): 5 | MIC50 (Candida tropicalis; Candida tropicalis): 0.015 µg/mL (≈ 0.0132 µM) | MIC90 (Candida tropicalis; Candida tropicalis): 0.03 µg/mL (≈ 0.0263 µM) | Cumulative % of isolates inhibited at MIC >8 μg/mL ([2]; 19 isolates): (100.0) % | Number of isolates inhibited at MIC >8 μg/mL ([2]; 19 isolates): 19 | MIC50 ([2]; Cryptococcus neoformans): 8 µg/mL (≈ 7.02 µM) | MIC90 ([2]; Cryptococcus neoformans): 8 µg/mL (≈ 7.02 µM) | MIC90 ([3]; 24 h, pH 4): 0.125 µg/mL (≈ 0.11 µM) | MIC90 ([3]; 24 h, pH 7): 0.03 µg/mL (≈ 0.0263 µM) | MIC90 ([3]; 48 h, pH 4): 0.5 µg/mL (≈ 0.438 µM) | MIC90 ([3]; 48 h, pH 7): 0.06 µg/mL (≈ 0.0526 µM) | MIC90 ([4]; 24 h, pH 4): 1 µg/mL (≈ 0.877 µM) | MIC90 ([4]; 24 h, pH 7): 2 µg/mL (≈ 1.75 µM) | MIC90 ([4]; 48 h, pH 4): 2 µg/mL (≈ 1.75 µM) | MIC90 ([4]; 48 h, pH 7): 4 µg/mL (≈ 3.51 µM) | Cumulative % of isolates inhibited at MIC 0.015 μg/mL (Candida krusei; 16 isolates): 6.2% | Cumulative % of isolates inhibited at MIC 0.03 μg/mL (Candida krusei; 16 isolates): (43.8) % | Cumulative % of isolates inhibited at MIC 0.06 μg/mL (Candida krusei; 16 isolates): (100.0) % | Number of isolates inhibited at MIC 0.015 μg/mL (Candida krusei; 16 isolates): 1 | Number of isolates inhibited at MIC 0.03 μg/mL (Candida krusei; 16 isolates): 6 | Number of isolates inhibited at MIC 0.06 μg/mL (Candida krusei; 16 isolates): 9 | MIC50 (Candida krusei; Pichia kudriavzevii): 0.06 µg/mL (≈ 0.0526 µM) | MIC90 (Candida krusei; Pichia kudriavzevii): 0.06 µg/mL (≈ 0.0526 µM) | Median mutation frequency ([5]; ATCC 2001): 7.02E−08 | Freq. (replicate mutation frequency) ([5]; ATCC 2001): 7.02E−08 and 6.71E−08 and 1.09E−07 | Median mutation frequency ([5]; ATCC 90030): 9.01E−09 | Freq. (replicate mutation frequency) ([5]; ATCC 90030): 4.41E−09 and 2.10E−08 and 9.01E−09 | Plate concentration ([5]; ATCC 2001): 0.125 µg/mL | Plate concentration ([5]; ATCC 90030): 0.125 µg/mL | Cumulative % of isolates inhibited at MIC 0.5 μg/mL (Candida parapsilosis; 92 isolates): (4.3) % | Cumulative % of isolates inhibited at MIC 1 μg/mL (Candida parapsilosis; 92 isolates): (34.8) % | Cumulative % of isolates inhibited at MIC 2 μg/mL (Candida parapsilosis; 92 isolates): (82.6) % | Cumulative % of isolates inhibited at MIC 4 μg/mL (Candida parapsilosis; 92 isolates): (100.0) % | Number of isolates inhibited at MIC 0.5 μg/mL (Candida parapsilosis; 92 isolates): 4 | Number of isolates inhibited at MIC 1 μg/mL (Candida parapsilosis; 92 isolates): 28 | Number of isolates inhibited at MIC 2 μg/mL (Candida parapsilosis; 92 isolates): 44 | Number of isolates inhibited at MIC 4 μg/mL (Candida parapsilosis; 92 isolates): 16 | MIC50 (Candida parapsilosis; Lodderomyces parapsilosis): 2 µg/mL (≈ 1.75 µM) | MIC90 (Candida parapsilosis; Lodderomyces parapsilosis): 4 µg/mL (≈ 3.51 µM) | MIC (C. albicans NRRL Y-477 [6]; NRRLY477, 48 h, NRRL Y-477 P20-1, selecting drug ANID, Fks1 HS1 S645Y, 48 h read): 4 µg/mL (≈ 3.51 µM) | MIC (C. albicans NRRL Y-477 [6]; NRRLY477, 48 h, NRRL Y-477 P20-1, selecting drug CMP1, 48 h read): 0.125 µg/mL (≈ 0.11 µM) | MIC (C. albicans NRRL Y-477 [6]; NRRLY477, NRRL Y-477 P20-1, selecting drug CAS): 0.015 µg/mL (≈ 0.0132 µM) | MIC (C. albicans NRRL Y-477 [6]; NRRLY477, read-out: MIC P20, NRRL Y-477, total population after 20 passages with the selecting drug, MIC of selecting drug): 4 µg/mL | MIC fold-shift (C. albicans NRRL Y-477 [6]; NRRL Y-477, WT to P20): 256 | MIC fold-shift ([7]; ATCC 2001): 64 | MIC fold-shift ([7]; ATCC 90030): 64 | MIC ([7]; 48 h, ATCC 90030 P20-1, selecting drug ANID, Fks2 HS1 D666I, 48 h read): 4 µg/mL (≈ 3.51 µM) | MIC ([7]; 48 h, ATCC 90030 P20-1, selecting drug CAS, Fks2 HS1 F659I D666Y, 48 h read): 8 µg/mL (≈ 7.02 µM) | MIC ([7]; ATCC 2001 P20-2, selecting drug ANID, Fks1 HS1 D632Y): 4 µg/mL (≈ 3.51 µM) | MIC ([7]; ATCC 2001 P20-2, selecting drug CAS): 2 µg/mL (≈ 1.75 µM) | MIC ([7]; ATCC 2001 P20-2, selecting drug CMP1): 1 µg/mL (≈ 0.877 µM) | MIC ([7]; ATCC 90030 P20-2, selecting drug CMP1): 1 µg/mL (≈ 0.877 µM) | MIC ([7]; read-out: MIC P20, ATCC 2001, total population after 20 passages with the selecting drug, MIC of selecting drug): 4 µg/mL | MIC ([7]; read-out: MIC P20, ATCC 90030, total population after 20 passages with the selecting drug, MIC of selecting drug): 4 µg/mL | MIC fold-shift (C. parapsilosis CP02 [8]; CP02, WT to P20): 1 | MIC (C. parapsilosis CP02 [8]; CP02, CP02 P20-1, selecting drug ANID): 4 µg/mL (≈ 3.51 µM) | MIC (C. parapsilosis CP02 [8]; CP02, CP02 P20-1, selecting drug CAS): 4 µg/mL (≈ 3.51 µM) | MIC (C. parapsilosis CP02 [8]; CP02, CP02 P20-1, selecting drug CMP1): 8 µg/mL (≈ 7.02 µM) | MIC (C. parapsilosis CP02 [8]; CP02, read-out: MIC P20, CP02, total population after 20 passages with the selecting drug, MIC of selecting drug): 4 µg/mL | MIC (C. albicans NRRL Y-477 [9]; NRRLY477): 0.25 µg/mL (≈ 0.219 µM) | MIC (C. albicans NRRL Y-477 [9]; NRRLY477, 24 h, read-out: Broth MIC): 0.015 µg/mL (≈ 0.0132 µM)

OC(Cn1cncn1)(Cn1cncn1)c1ccc(F)cc1F [FLU, fluconazole]
% of isolates with fluconazole resistance (Candida tropicalis; CLSI breakpoints): 2.0% | Susceptibility to FLU (S/R) ([10]; C. krusei ATCC 6258): R | Susceptibility to FLU (S/R) ([10]; C. krusei ATCC 14243): R | MIC90 ([3]; 13 isolates, pH 4, 24 h, read-out: MIC90): 8 µg/mL (≈ 26.1 µM) | MIC90 ([3]; 13 isolates, pH 4, 48 h, read-out: MIC90): > 64 µg/mL | MIC90 ([3]; 13 isolates, pH 7, 24 h, read-out: MIC90): 2 µg/mL (≈ 6.53 µM) | MIC90 ([3]; 13 isolates, pH 7, 48 h, read-out: MIC90): 64 µg/mL (≈ 209 µM) | antimicrobial effect versus vehicle (one-way ANOVA, Dunnett's test) ([11]; 48 and 72 hr after infection, Compound 1 3, 10, 30 mg/kg IP, amphotericin B 1 and 3 mg/kg IV, fluconazole 20 mg/kg PO): not significant | reduction in colony counts compared to the vehicle control group ([11]; 48 hr after infection): 51% | reduction in colony counts compared to the vehicle control group ([11]; 72 hr after infection): 84% | MIC90 ([4]; 14 isolates, pH 4, 24 h, read-out: MIC90): 8 µg/mL (≈ 26.1 µM) | MIC90 ([4]; 14 isolates, pH 4, 48 h, read-out: MIC90): > 64 µg/mL | MIC90 ([4]; 14 isolates, pH 7, 48 h, read-out: MIC90): 32 µg/mL (≈ 104 µM) | % of isolates with fluconazole resistance (Candida parapsilosis; CLSI breakpoints): 4.3% | reduction in vaginal CFU compared with no treatment control [12]: < 1 log-fold
